Assay results reported in ChEMBL document CHEMBL1208714, “Dimeric cyclohexane-1,3-dione oximes inhibit wheat acetyl-CoA carboxylase and show anti-malarial activity” (Bioorg Med Chem Lett, 2010).
Calls of active or inactive are those of the source. The rule behind the calls is not given here.

Legend:
Plasmodium falciparum = assay: Antimalarial activity against Plasmodium falciparum D10; type: functional, organism-based
[1] = tested on: acetyl-CoA carboxylase (Triticum aestivum); assay: Inhibition of wheat ACC at 20 uM
[2] = Inhibition of maize ACC; set-up: species or system Zea mays

Compound: CCO/N=C(\CC)C1=C(O)CC(c2c(C)cc(C)c(C(C)=O)c2C)CC1=O (stereo not drawn)
- IC50 (Plasmodium falciparum): > 10 µM

Compound: CCO/N=C(\CC)C1=C(O)CC(c2ccc(C3CC(=O)C(/C(CC)=N/OCC)=C(O)C3)cc2)CC1=O (stereo not drawn)
- IC50 (Plasmodium falciparum): 6 µM
- inhibition [1]: Active

Compound: CCO/N=C(\C)C1=C(O)CC(c2ccc(C3CC(=O)C(/C(C)=N/OCC)=C(O)C3)cc2)CC1=O (stereo not drawn)
- IC50 (Plasmodium falciparum): 12 µM

Compound: CCC/C(=N\OCC)C1=C(O)CC(c2ccc(C3CC(=O)C(/C(CCC)=N/OCC)=C(O)C3)cc2)CC1=O (stereo not drawn)
- IC50 (Plasmodium falciparum): 5 µM

Compound: CCO/N=C(\CC)C1=C(O)CC(c2cccc(C3CC(=O)C(/C(CC)=N/OCC)=C(O)C3)c2)CC1=O (stereo not drawn)
- IC50 (Plasmodium falciparum): 3 µM

Compound: C=CCO/N=C(\CCC)C1=C(O)CC(c2cccc(C3CC(=O)C(/C(CCC)=N/OCC=C)=C(O)C3)c2)CC1=O (stereo not drawn)
- IC50 (Plasmodium falciparum): 2.5 µM

Compound: CCC/C(=N\OCc1ccccc1)C1=C(O)CC(c2cccc(C3CC(=O)C(/C(CCC)=N/OCc4ccccc4)=C(O)C3)c2)CC1=O (stereo not drawn)
- IC50 (Plasmodium falciparum): 12.5 µM

Compound: CCC/C(=N\OC(c1ccccc1)c1ccccc1)C1=C(O)CC(c2cccc(C3CC(=O)C(/C(CCC)=N/OC(c4ccccc4)c4ccccc4)=C(O)C3)c2)CC1=O (stereo not drawn)
- IC50 (Plasmodium falciparum): 25 µM

Compound: CCC/C(=N\OCC)C1=C(O)CC(c2cccc(C3CC(=O)C(/C(CCC)=N/OCC)=C(O)C3)c2)CC1=O (stereo not drawn)
- IC50 (Plasmodium falciparum): 4 µM

Compound: CCCC(=O)c1c(C)cc(C)c(C2CC(=O)C(/C(CC)=N/OCC)=C(O)C2)c1C (stereo not drawn) [BUTROXYDIM]
- IC50 (Plasmodium falciparum): 10 µM
- inhibition [1]: Active
- IC50 [2]: 0.3 µM

Compound: CCSC(C)CC1CC(=O)C(/C(CC)=N/OC/C=C/Cl)=C(O)C1 (stereo not drawn) [CLETHODIM]
- IC50 (Plasmodium falciparum): > 250 µM
- IC50 [2]: 0.02 µM

Compound: CCOC(=O)C(C)Oc1ccc(Oc2cnc3cc(Cl)ccc3n2)cc1 (stereo not drawn) [QUIZALOFOP ETHYL ESTER]
- IC50 (Plasmodium falciparum): > 100 µM
- IC50 [2]: > 1 µM

Compound: CC(Oc1ccc(Oc2cnc3cc(Cl)ccc3n2)cc1)C(=O)O (stereo not drawn) [QUIZALOFOP]
- IC50 (Plasmodium falciparum): > 100 µM
- IC50 [2]: 0.016 µM

Compound: CC/C(=N\OC/C=C/Cl)C1=C(O)CC(C2CCOCC2)CC1=O (stereo not drawn) [TEPRALOXYDIM]
- IC50 (Plasmodium falciparum): > 100 µM
- IC50 [2]: 0.7 µM

Compound: CCO/N=C(\CC)C1=C(O)CC(c2c(C)cc(C)cc2C)CC1=O (stereo not drawn) [TRALKOXYDIM]
- IC50 (Plasmodium falciparum): > 100 µM
- IC50 [2]: 0.52 µM
